Experimental data reported in patent US5478939A, “(R,R) and (S,S) 2,5-diazabicyclo [2,2,1]heptane derivatives” (priority 1994, dated 1995).
Where a name gives a salt, the structure may show the parent alone.

How the values were obtained:
[1] = molecular target: muscarinic cholinergic receptor (high affinity agonist conformation); test: [3H]-cis-Methyldioxolane (3H-CD) Binding Assay (High Affinity), cerebral cortex; conditions: 3H-CD 1.0 nM, rat cerebral cortex, 25° C., 120 minutes, pH 7.4; read-out: Ki, ^3 H-CD (ctx)
[2] = molecular target: muscarinic cholinergic receptor; test: [3H] Quinuclidinyl Benzilate (QNB) Binding Assay, cerebral cortex; conditions: 3H-QNB 0.25 nM, rat cerebral cortex, 25° C., 120 minutes, pH 7.4; read-out: Ki, ^3 H-QNB (ctx)

SMILES	Ki [1] [µM]	Ki [2] [µM]
CC(C)(C)OC(=O)N1C[C@H]2C[C@@H]1CN2c1cnccn1 [Example 3, (R,R)-2-(tert-Butyloxycarbonyl)-5-(2-pyrazinyl)-2,5-diazabicyclo[2.2.1]heptane]	> 1000	–
Cc1nsc(N2C[C@H]3C[C@@H]2CN3C(=O)OC(C)(C)C)n1 [Example 5]	59	> 1000
CC(C)(C)OC(=O)N1C[C@H]2C[C@@H]1CN2c1ncns1 [Example 7]	> 1000	–
CC(C)(C)OC(=O)N1C[C@@H]2C[C@H]1CN2c1ncns1 [Example 8, (S,S)-2-(tert-Butyloxycarbonyl)-5-(1,2,4-thiadiazol-5-yl)-2,5-diazabicyclo[2.2.1]heptane]	97	–
Cc1noc(N2C[C@H]3C[C@@H]2CN3C(=O)OC(C)(C)C)n1 [Example 9, (R,R)-2-(tert-Butyloxycarbonyl)-5-(3-methyl-1,2,4-oxadiazol-5-yl)-2,5-diazabicyclo[2.2.1]heptane]	18.2	–
Cc1noc(N2C[C@@H]3C[C@H]2CN3C(=O)OC(C)(C)C)n1 [Example 10]	43.2	–
c1cnc(N2C[C@H]3C[C@@H]2CN3)cn1 [Example 11, (R,R)-2-(2-Pyrazinyl)-2,5-diazabicyclo[2.2.1]heptane hydrochloride]	0.1	3.1
c1cnc(N2C[C@@H]3C[C@H]2CN3)cn1 [Example 12, (S,S)-2-(2-Pyrazinyl)-2,5-diazabicyclo[2.2.1]heptane hydrochloride]	1.3	11.4
Cc1nsc(N2C[C@@H]3C[C@H]2CN3)n1 [Example 13, (S,S)-2-(3-Methyl-1.2,4-thiadiazol-5-yl)-2,5-diazabicyclo[2.2.1]heptane]	13	–
Cc1nsc(N2C[C@H]3C[C@@H]2CN3)n1 [Example 14, (R,R)-2-(3-Methyl-1,2,4-thiadiazol-5-yl)-2,5-diazabicyclo[2.2.1]heptane]	0.9	24.7
c1nsc(N2C[C@@H]3C[C@H]2CN3)n1 [Example 15, (S,S)-2-(1,2,4-Thiadiazol-5-yl)-2,5-diazabicyclo[2.2.1]heptane]	29.5	> 1000
c1nsc(N2C[C@H]3C[C@@H]2CN3)n1 [Example 16, (R,R)-2-(1,2,4-Thiadiazol-5-yl) -2,5-diazabicyclo[2.2.1]heptane]	0.3	> 1000
Cc1noc(N2C[C@@H]3C[C@H]2CN3)n1 [Example 17, (S,S)-2-(3-Methyl-1,2,4-oxadiazol-5-yl)-2,5-diazabicyclo[2.2.1]heptane]	5.4	> 1000
Cc1noc(N2C[C@H]3C[C@@H]2CN3)n1 [Example 18, (R,R)-2-(3-Methyl-1,2,4-oxadiazol-5-yl)-2,5-diazabicyclo[2.2.1]heptane]	0.4	47.2
CN1C[C@@H]2C[C@H]1CN2c1cnccn1 [Example 19, (S,S)-2-Methyl-5-(2-pyrazinyl)-2,5-diazabicyclo[2.2.1]heptane]	0.4	5.5
Cc1cnc(C)c(N2C[C@@H]3C[C@H]2CN3C)n1 [Example 22, (S,S)-2-(3,6-Dimethylpyrazin-2-yl)-5-methyl-2,5-diazabicyclo[2,2.1]heptane]	0.7	1.2
CN1C[C@@H]2C[C@H]1CN2c1nccnc1Cl [Example 23, (S,S)-2-(3-Chloropyrazin-2-yl)-5-methyl-2,5-diazabicyclo[2.2.1]heptane]	0.9	2.3
CN1C[C@@H]2C[C@H]1CN2c1cncc(Cl)n1 [Example 24, (S,S)-2-(6-Chloropyrazin-2-yl)-5-methyl-2.5-diazabicyclo[2.2.1]heptane]	2	4.5
Cc1nsc(N2C[C@@H]3C[C@H]2CN3C)n1 [Example 26, (S,S)-2-Methyl-5-(3-methyl-1,2,4-thiadiazol-5-yl)-2,5-diazabicyclo[2.2.1]heptane]	0.2	0.5
CN1C[C@@H]2C[C@H]1CN2c1sccc1[N+](=O)[O-] [Example 28, (S,S)-2-Methyl-5-(3-nitro-2-thienyl)-2,5-diazabicyclo[2.2.1]heptane]	9.8	> 1000
CN1C[C@@H]2C[C@H]1CN2c1ccc([N+](=O)[O-])s1 [Example 29, (S,S)-2-Methyl-5-(5-nitro-2-thienyl)-2,5-diazabicyclo[2.2.1]heptane]	6.8	13.2
CN1C[C@@H]2C[C@H]1CN2c1ccccc1[N+](=O)[O-] [Example 30, (S,S)-2-Methyl-5-(2-nitrophenyl)-2,5-diazabicyclo[2.2.1]heptane]	1.1	1.6
COc1cncc(N2C[C@@H]3C[C@H]2CN3C)n1 [Example 32, (S,S)-2-Methyl-5-(6-methoxypyrazin-2-yl)-2,5-diazabicyclo[2.2.1]heptane]	0.3	0.4
Cc1nccnc1N1C[C@@H]2C[C@H]1CN2C [Example 35, (S,S)-2-Methyl-5-(3-methylpyrizin-2-yl)-2,5-diazabicyclo[2.2.1]heptane]	1.7	6.3
CN1C[C@H]2C[C@@H]1CN2c1cnccn1 [Example 36, (R,R)-2-Methyl-5-(2-pyrazinyl)-2,5-diazabicyclo[2.2.1]heptane]	6.4	> 1000
